Measured values as given in patent US20240327427A1, “NEW COMPOUNDS FOR THE TREATMENT OF ALZHEIMER'S DISEASE” (Icahn School of Medicine at Mount Sinai, priority 2020, published 2024).
“Also recorded” adds a separate entry of the source.

Key:
[1] = test system: ATP6V1A; assay: ATP6V1A mRNA (qRT-PCR) and protein (western blot) levels in hiPSC-derived NGN2 neurons (iNs); assay type: cell-based, human
Protocol: To verify this discovery, the inventors measured the transcriptional and translational levels of ATP6V1A in D21 iNs treated with the 3 HDAC inhibitors at a series of concentrations between 1 and 30 μM.
CRISPR inhibition (CRISPRi) was used to repress endogenous ATP6V1A in hiPSC-derived NGN2 neurons. […] Next, the inventors investigated whether LQ081-166 rescued the phenotypes of ATP6V1A deficit and reduced neuronal activity.
Quantitative reverse transcription PCR (qRT-PCR) was performed as previously described. Specifically, cell cultures were harvested with Trizol and total RNA extraction was carried out following the manufacturer's instructions. Quantitative transcript analysis was performed using a QuantStudio 7 Flex Real-Time PCR System with the Power SYBR Green RNA-to-Ct Real-Time qPCR Kit (all Thermo Fisher Scientific). Total RNA template (25 ng per reaction) was added to the PCR mix, including primers listed below. qPCR conditions were as follows; 48° C. for 30 min, 95° C. for 10 min followed by 40 cycles (95° C. for 15 s, 60° C. for 60 s). All qPCR data is collected from at least 3 independent biological replicates of one experiment. Data analyses were performed using GraphPad PRISM 6 software.
Cells were rinsed with ice-cold phosphate-buffered saline (PBS), pelleted, and lyzed in RIPA Lysis and Extraction Buffer (Thermo Fisher Scientific, #89900) containing Halt™ Protease and Phosphatase Inhibitor Cocktail (Thermo Fisher Scientific, #78440). Alternatively, MSBB BM36 brain samples were homogenized with similar methods. Samples were sonicated for 1 minute then centrifuged at 13,000× rpm for 10 min. The supernatant was collected, and total protein concentration was determined using Quick Start™ Bradford Protein Assay (Bio-Rad, 5000201) following the manufacturer's instructions.
Images were captured and quantified using the Odyssey® Imaging Systems (LI-COR. Inc.).
A stock solution of LQ081-166 (molecular weight: 452.63) at 3 mM is prepared in dimethyl sulfoxide (DMSO). Once prepared, aliquot the stock solution into 100 μL amounts and store at −80° C. Avoid repeated freeze-thaw cycles. The stock is diluted 1000× into neuronal medium to obtain 3 μM for assays. After 24-hour treatment, RNA was extracted from cells for quantitative PCR. In the MEA assay, LQ081-166 was added on neuronal differentiation day 14. Replace with medium containing drug or vehicle every 2-3 days until the final recording day.

[2] = test system: Vha68-1, Vha68-2 (fly orthologs of ATP6V1A); assay: Vha68-1/Vha68-2 mRNA levels in fly brains after drug feeding; assay type: in vivo, Drosophila; conditions: fed
Protocol: (§1) Since Vha68-2 decreased more dramatically compared to Vha68-1 in Aβ42 fly brains (FIG. 4Q), an inference was made that NCH-51 treatment counteracts pathological reductions in Vha68-2 levels. […] More than 25 flies for each genotype were collected and frozen. Heads were mechanically isolated, and total RNA was extracted using TRIzol Reagent (Thermo Fisher Scientific) according to the manufacturer's protocol with an additional centrifugation step (16,000×g for 10 min) to remove cuticle membranes prior to the addition of chloroform. Total RNA was reverse-transcribed using PrimeScript RT-PCR kit (TaKaRa Bio), and qRT-PCR was performed using Thunderbird SYBR qPCR Mix (Toyobo) on a CFX96 real time PCR detection system (Bio-Rad Laboratories). The average threshold cycle value was calculated from at least three replicates per sample. Expression of genes of interest was standardized relative to GAPDH1. Primer sequences are provided below. Flies were fed with the food containing 10 μM or 50 μM NCH51 or vehicle (final concentration 0.02% dimethyl sulfoxide) from the day after eclosion. These food vials were changed every 3-4 days.

[3] = test system: Aβ42 flies; assay: Neurodegeneration (vacuole area) in Aβ42 fly brains after drug feeding; assay type: in vivo, Drosophila
Protocol: Aβ42 flies were treated with 0, 10, or 50 μM of NCH-51 during aging to examine its effects on neurodegeneration.
Heads of male flies were fixed in 4% paraformaldehyde for 24 hours at 4° C. and embedded in paraffin. Serial sections (6 μm thickness) through the entire heads were prepared, stained with hematoxylin and eosin (Sigma-Aldrich), and examined by bright-field microscopy. Images of the sections were captured with AxioCam 105 color (Carl Zeiss). To score brain vacuolization, the inventors performed microscopy of serial brain sections within the central neuropil regions and selected the images with the most severe vacuolization from each fly to score area of vacuolization. The inventors selected the section with the most severe neurodegeneration in the same brain area from each individual fly and the area of vacuoles was measured using Image J (NIH). The analyses were performed more than two times and two to three persons were independently involved in these tasks to avoid any bias.
Flies were fed with the food containing 10 μM or 50 μM NCH51 or vehicle (final concentration 0.02% dimethyl sulfoxide) from the day after eclosion. These food vials were changed every 3-4 days.

[4] = test system: 16 genes related to synaptic biology; assay: mRNA levels of key regulator genes of neuronal activity in Aβ42 fly brains; assay type: in vivo, Drosophila
Protocol: as §1, with “Aβ42 flies were treated with 0, 10, or 50 μM of NCH-51 during aging” for “Since Vha68-2 decreased more dramatically compared”, “examine its effects on neurodegeneration.” for “Vha68-1 in Aβ42 fly brains (FIG. 4Q), an inference was made that NCH-51 treatment counteracts pathological reductions in Vha68-2 levels.”

[5] = Aβ42 flies, 50 μM in food vs 0 μM

For `CC(C)C(=O)SCCCCCCC(=O)Nc1nc(-c2ccccc2)cs1` [NCH-51], the “ATP6V1A mRNA level” value ([1]; 3 μM, 24-hr, particularly in ATP6V1A KD iNs, P<0.05) was “dramatically elevates”, the “transcriptional and translational levels of ATP6V1A” value ([1]; D21 iNs, concentrations between 1 and 30 μM) was “effectively increased ATP6V1A levels” and the ATP6V1A protein yield ([1]; iNs, 3 μM) was “significantly increase the protein yield”. The ATP6V1A protein level ([1]; iNs, 3 μM, P<0.05) was “similarly increased”, the “mRNA levels of Vha68-2” value ([2]; Aβ42 fly brains, dose-dependent) was “significantly increased; also recorded: increased mRNA levels of Vha68-2” and the “mRNA levels of Vha68-1 or Vha68-2” value ([2]; control flies) was “did not increase”. The “neurodegeneration in cell body and central neuropil regions” value ([3]; 21-day-old Aβ42 fly brains) was “suppressed neurodegeneration”, the “cell loss (cell body region neurodegeneration)” value [3, 5] was “significantly suppressed” and the neuropil degeneration [3, 5] was “significantly suppressed”. For the same molecule, the “mRNA levels of synaptic biology related genes” value ([4]; dose-dependent) was “increased mRNA levels of synaptic biology related genes” and the “number of key regulator genes of neuronal activity with increased mRNA levels” value ([4]; fed) was 9 out of 16.
